Results as given in paper PMC6270271, “Accidental Interaction between PDZ Domains and Diclofenac Revealed by NMR-Assisted Virtual Screening” (Molecules, 2013).

Assays:
RHPN2 (RHPN2_PDZ, PDZ7) = biological target: T1, RHPN2 (RHPN2_PDZ, PDZ7) (Homo sapiens, UniProt Q8IUC4); test: 1H-15N SOFAST-HMQC NMR titration; format: binding
T1 construct: PDZ domain, 99 residues
T1 sequence (Q8IUC4 515-593 limits assumed): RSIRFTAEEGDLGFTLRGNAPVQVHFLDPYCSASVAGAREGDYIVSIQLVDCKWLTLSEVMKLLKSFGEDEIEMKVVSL
Source text: 1H-15N SOFAST-HMQC NMR titration on RHPN2 (RHPN2_PDZ, PDZ7) | PDZ7|−|++|++|−|−|−|−|+|−|−

[1] = biological target: T2, Harmonin (Harmonin_PDZ2, PDZ8) (Homo sapiens, UniProt Q9Y6N9); test: 1H-15N SOFAST-HMQC NMR titration; format: binding
T2 construct: gene USH1C; PDZ2 domain, 100 residues
T2 sequence (Q9Y6N9 201-300 limits assumed): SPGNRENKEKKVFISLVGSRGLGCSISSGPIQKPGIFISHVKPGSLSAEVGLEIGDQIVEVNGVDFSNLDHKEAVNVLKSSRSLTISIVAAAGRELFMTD
Source text: 1H-15N SOFAST-HMQC NMR titration on Harmonin (Harmonin_PDZ2, PDZ8) | PDZ8|−|+|−|−|−|−|−|++|−|−

[2] = biological target: T3, InaDL (InaDL_PDZ6, PDZ13) (Homo sapiens, UniProt Q8NI35); test: 1H-15N SOFAST-HMQC NMR titration; format: binding
T3 construct: gene PATJ; PDZ6 domain, 113 residues
T3 sequence (Q8NI35 1058-1170 limits assumed): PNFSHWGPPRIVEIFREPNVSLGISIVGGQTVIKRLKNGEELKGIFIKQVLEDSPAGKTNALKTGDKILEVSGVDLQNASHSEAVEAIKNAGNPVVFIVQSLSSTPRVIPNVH

mouse ZO-1 (mZO1-PDZ1) [3] = biological target: T4, mouse ZO-1 (mZO1-PDZ1) (Mus musculus, UniProt P39447); test: 1H-15N SOFAST-HMQC NMR titration; format: binding
T4 construct: gene Tjp1
T4 sequence (P39447 18-110): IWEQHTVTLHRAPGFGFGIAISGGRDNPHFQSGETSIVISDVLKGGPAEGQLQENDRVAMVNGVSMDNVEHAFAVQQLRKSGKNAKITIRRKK

mouse ZO-1 (mZO1-PDZ1) [4] = biological target: T4, mouse ZO-1 (mZO1-PDZ1); test: 1H-15N SOFAST-HMQC NMR titration; V92E-R96Q mutant abolishes binding

1H-15N SOFAST-HMQC NMR titration (RHPN2 (RHPN2_PDZ, PDZ7))	Kd (mouse ZO-1 (mZO1-PDZ1) [3]) [µM]	Compound	1H-15N SOFAST-HMQC NMR titration [1]	1H-15N SOFAST-HMQC NMR titration [2]	Kd (mouse ZO-1 (mZO1-PDZ1) [4]) [µM]
PDZ7|−|++|++|−|−|−|−|+|−|−	750	O=C(O)c1ccccc1Nc1cccc(C(F)(F)F)c1 [FLF, 2-[[3-(trifluoro-methyl)phenyl]amino] benzoic acid]	PDZ8|−|+|−|−|−|−|−|++|−|−	PDZ13|n. e.|++|+|−|−|−|−|++|−|−	
PDZ7|−|++|++|−|−|−|−|+|−|−		CC(=O)O[C@H]1C[C@@]2(C)[C@@H](C[C@@H](O)[C@H]3[C@@]4(C)CC[C@@H](O)[C@@H](C)[C@@H]4CC[C@@]32C)/C1=C(\CCC=C(C)C)C(=O)O [FUA, fusidic acid]			

Compound	1H-15N SOFAST-HMQC NMR titration (RHPN2 (RHPN2_PDZ, PDZ7))	Kd (mouse ZO-1 (mZO1-PDZ1) [3]) [µM]	1H-15N SOFAST-HMQC NMR titration [1]	1H-15N SOFAST-HMQC NMR titration [2]	Kd (mouse ZO-1 (mZO1-PDZ1) [4]) [µM]
O=C(O)Cc1ccccc1Nc1c(Cl)cccc1Cl [DIF, 2-[(2,6-dichlorophenyl)amino] benzene-acetic acid]	PDZ7|−|++|++|−|−|−|−|+|−|−		PDZ8|−|+|−|−|−|−|−|++|−|−	PDZ13|n. e.|++|+|−|−|−|−|++|−|−	1400
